Data on seven compounds can be found in patent publication US20200291086A1, “BIOREVERSABLE PROMOIETIES FOR NITROGEN-CONTAINING AND HYDROXYL-CONTAINING DRUGS” (priority 2013, published 2020).

Numbered stars: 1 amine (or outer) side, 2 acyl side, 3 side chain; on linkers, the order of the positions; unused ones are H or OH. Square brackets hold non-standard residues; d marks the D form. Peptide text beside a SMILES is read from it. * marks the point of attachment. X16 = C[C@H](N)c1nc(SCC(=O)NCCNC(=O)OCC2c3ccccc3-c3ccccc32)cn1[C@@H](C)C(=O)*; X10 = C[C@H](N)c1nnnn1[C@@H](CCCCN[*:1])C(=O)[*:2]; X8 = C[C@@H](C(=O)[*:2])n1nncc1[C@@H](N)CCCCN[*:1]; X3 = NCc1cccn1[C@@H](CCCCN[*:1])C(=O)[*:2]; Fmoc = O=C(OCC1c2ccccc2-c2ccccc21)*; X15 = NCc1cc(S(N)(=O)=O)ccc1C(=O)*; X14 = NCCc1ccccc1C(=O)*

Chain of insulin receptor (P06213 28-758 limits assumed, species assumed): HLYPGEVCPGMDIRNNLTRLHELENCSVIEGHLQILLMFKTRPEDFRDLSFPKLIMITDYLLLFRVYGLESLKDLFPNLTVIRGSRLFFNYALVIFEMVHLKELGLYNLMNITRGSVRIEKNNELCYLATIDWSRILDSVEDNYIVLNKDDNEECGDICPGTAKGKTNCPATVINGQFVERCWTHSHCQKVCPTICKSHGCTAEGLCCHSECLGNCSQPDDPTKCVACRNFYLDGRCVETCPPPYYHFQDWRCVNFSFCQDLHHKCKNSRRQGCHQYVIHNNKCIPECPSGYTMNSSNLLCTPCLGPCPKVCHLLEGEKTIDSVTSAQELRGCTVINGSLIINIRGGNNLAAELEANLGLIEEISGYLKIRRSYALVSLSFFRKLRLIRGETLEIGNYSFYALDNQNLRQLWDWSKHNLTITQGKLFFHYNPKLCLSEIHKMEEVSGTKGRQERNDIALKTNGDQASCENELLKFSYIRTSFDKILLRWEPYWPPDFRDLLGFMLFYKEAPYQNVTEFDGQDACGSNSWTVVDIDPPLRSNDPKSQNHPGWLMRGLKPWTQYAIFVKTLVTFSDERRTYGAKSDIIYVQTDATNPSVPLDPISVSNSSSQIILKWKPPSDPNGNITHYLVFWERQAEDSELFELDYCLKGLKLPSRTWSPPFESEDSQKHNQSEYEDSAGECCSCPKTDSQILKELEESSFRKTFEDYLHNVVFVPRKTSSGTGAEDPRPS
Chain of insulin receptor (P06213 763-1382 partner limits assumed, species assumed): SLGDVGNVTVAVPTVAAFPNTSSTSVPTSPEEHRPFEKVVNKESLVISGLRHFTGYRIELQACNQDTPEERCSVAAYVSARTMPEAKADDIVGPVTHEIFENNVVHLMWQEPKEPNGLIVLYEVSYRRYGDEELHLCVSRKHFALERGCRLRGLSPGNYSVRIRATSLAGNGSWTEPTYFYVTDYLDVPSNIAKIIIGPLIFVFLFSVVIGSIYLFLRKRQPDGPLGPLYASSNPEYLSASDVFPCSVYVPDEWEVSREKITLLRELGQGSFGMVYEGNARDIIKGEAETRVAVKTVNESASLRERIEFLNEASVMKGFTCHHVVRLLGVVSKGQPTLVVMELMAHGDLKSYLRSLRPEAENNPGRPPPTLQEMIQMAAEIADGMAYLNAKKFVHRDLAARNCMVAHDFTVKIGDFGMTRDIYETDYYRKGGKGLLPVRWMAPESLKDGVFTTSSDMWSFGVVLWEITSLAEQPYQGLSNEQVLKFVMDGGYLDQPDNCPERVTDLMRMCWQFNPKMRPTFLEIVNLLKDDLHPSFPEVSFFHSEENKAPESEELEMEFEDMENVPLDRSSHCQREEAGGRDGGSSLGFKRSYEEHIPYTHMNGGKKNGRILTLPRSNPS

Test system in one data set: not listed separately
The experiment in a line: Determination of half life in serum: cleavage of promoieties from capped D-amino acid model peptides. In kind it is in vitro ADME. To be noted: 100% serum, 37° C.; read-out: t 1/2 (h), cleavage of promoiety linked to N terminus of model peptide X-G-dI-dV-dE-dQ-dA-dA (converted). On the procedure:
Determination of Half Life in Serum
Promoiety capped model peptides X-G-dI-dV-dE-dQ-dA-dA were used in the assay. D amino acids were used to prevent other enzymatic cleavage of the model peptides. The peptides were dissolved in 100% serum and incubated at 37° C. Samples were collected for analysis at different time points (e.g., 1 h, 2 h, 4 h, 8 h, 12 h, 24 h, 48 h, 72 h, 96 h, and 120 h).
The concentrations of the promoiety capped model peptides and the released parent model peptides were determined by their respective peak areas. The first order dissociation rate constant of a promoiety capped model peptide was determined by plotting the logarithm of [starting promoiety capped model peptide]/[remaining promoiety capped model peptide] at various time intervals. The half life for cleavage of a promoiety capped model peptide was calculated by using the equation and the slope derived from this plot.
Take `CC[C@@H](C)[C@@H](NC(=O)CNC(=O)[C@H](C)n1cc(SCC(=O)NCCNC(=O)OCC2c3ccccc3-c3ccccc32)nc1[C@H](C)N)C(=O)N[C@@H](C(=O)N[C@H](CCC(=O)O)C(=O)N[C@H](CCC(N)=O)C(=O)N[C@H](C)C(=O)N[C@H](C)C(=O)O)C(C)C` (X16-G[dI][dV][dE][dQ][dA][dA]-OH): the half-life is 72.3 h. For `CC[C@@H](C)[C@@H](NC(=O)CNC(=O)c1ccccc1CCN)C(=O)N[C@@H](C(=O)N[C@H](CCC(=O)O)C(=O)N[C@H](CCC(N)=O)C(=O)N[C@H](C)C(=O)N[C@H](C)C(=O)O)C(C)C` (X14-G[dI][dV][dE][dQ][dA][dA]-OH), the half-life was 106 h. With `CC[C@@H](C)[C@@H](NC(=O)CNC(=O)[C@H](C)n1nncc1[C@@H](N)CCCCNC(=O)OCC1c2ccccc2-c2ccccc21)C(=O)N[C@@H](C(=O)N[C@H](CCC(=O)O)C(=O)N[C@H](CCC(N)=O)C(=O)N[C@H](C)C(=O)N[C@H](C)C(=O)O)C(C)C` (Fmoc-[X8]G[dI][dV][dE][dQ][dA][dA]-OH), the half-life is 96.4 h. Turning to `CC[C@@H](C)[C@@H](NC(=O)CNC(=O)c1ccc(S(N)(=O)=O)cc1CN)C(=O)N[C@@H](C(=O)N[C@H](CCC(=O)O)C(=O)N[C@H](CCC(N)=O)C(=O)N[C@H](C)C(=O)N[C@H](C)C(=O)O)C(C)C` (X15-G[dI][dV][dE][dQ][dA][dA]-OH), the half-life was 39.9 h. Take `CC[C@@H](C)[C@@H](NC(=O)CNC(=O)[C@H](CCCCNC(=O)OCC1c2ccccc2-c2ccccc21)n1cccc1CN)C(=O)N[C@@H](C(=O)N[C@H](CCC(=O)O)C(=O)N[C@H](CCC(N)=O)C(=O)N[C@H](C)C(=O)N[C@H](C)C(=O)O)C(C)C` (Fmoc-[X3]G[dI][dV][dE][dQ][dA][dA]-OH): the half-life was 103 h. On to `CC[C@@H](C)[C@@H](NC(=O)CNC(=O)[C@H](CCCCNC(=O)OCC1c2ccccc2-c2ccccc21)n1nnnc1[C@H](C)N)C(=O)N[C@@H](C(=O)N[C@H](CCC(=O)O)C(=O)N[C@H](CCC(N)=O)C(=O)N[C@H](C)C(=O)N[C@H](C)C(=O)O)C(C)C` (Fmoc-[X10]G[dI][dV][dE][dQ][dA][dA]-OH), for which the half-life was 91.5 h.

A further data set has as its target insulin receptor (Homo sapiens, UniProt P06213).
Assay: not given
The settings on record: cited from earlier work.
For the compound “[LysB29-tetradecanoyl, des B30] insulin [insulin detemir]”, the “binding affinity retained relative to native insulin” value was 15-20%.
